# From patent EP0264914A2, “Process for producing L-phenylalanine” (KYOWA HAKKO KOGYO CO., LTD., priority 1986, dated 1988)
# Read-outs that look alike come from different tables or passages of the source.
# Columns and labels:
# DS = DS (Escherichia coli, UniProt P0AB91); assay: DS activity with phenylalanine added to the reaction solution; type: biochemical; settings: 100 mM phenylalanine
# Experimental: (§1) DS, CM and PD activities of Corynebacterium glutamicum ATCC 39019 and transformants containing pEaroG-pheA3 were determined. Determination of DS activity was done according to the method of P.R. Sprinavasan, D.B. Sprinson, et al. [J. Biol. Chem., 234, 716 (1959)] and determination of CM and PD activities was done according to the method of R.G.H. Cotton and F. Gibson [Biochem. Biophys. Acta, 100, 76 (1965)].
# (§2) Furthermore, DS, CM and PD activities of the transformants carrying pEaroG-pheA1, pEaroG-pheA2 or pEaroG-pheA3, were determined when 100 mM phenylalanine was added to the reaction solutions. Their activities shown in Table 2 are expressed as percentages of those without addition of phenylalanine.
# PD = PD (Escherichia coli, UniProt P0A9J8); assay: PD activity with phenylalanine added to the reaction solution; type: biochemical; settings: 100 mM phenylalanine; for activity at 100000 µM: read-out: PD activity, expressed as percentage of that without addition of phenylalanine
# Sequence of PD (P0A9J8 whole entry): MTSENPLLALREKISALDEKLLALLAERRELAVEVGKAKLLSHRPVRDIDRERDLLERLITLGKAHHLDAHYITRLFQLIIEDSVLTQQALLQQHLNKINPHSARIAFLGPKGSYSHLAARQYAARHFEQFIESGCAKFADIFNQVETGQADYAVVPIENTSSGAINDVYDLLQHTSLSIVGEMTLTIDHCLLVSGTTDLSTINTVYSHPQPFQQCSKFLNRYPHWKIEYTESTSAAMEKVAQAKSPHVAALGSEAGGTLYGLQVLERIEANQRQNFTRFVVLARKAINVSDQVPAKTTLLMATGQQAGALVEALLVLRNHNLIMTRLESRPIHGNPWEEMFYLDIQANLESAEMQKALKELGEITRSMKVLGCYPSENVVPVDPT
# Experimental: as §1, §2
# CM = CM (Escherichia coli, UniProt P0A9J8); assay: CM activity with phenylalanine added to the reaction solution; type: biochemical; settings: 100 mM phenylalanine; for activity at 100000 µM: read-out: CM activity, expressed as percentage of that without addition of phenylalanine
# Sequence of CM (P0A9J8 whole entry): as above
# Experimental: as §1, §2
# [1] = test system: Escherichia coli AB3248 strain carrying pAROG1; assay: Growth on M9 plate medium containing phenylalanine; type: cell-based; settings: M9 plate medium containing 500 µg/mℓ phenylalanine
# Experimental: Then, 50 µℓ of the ligase reaction mixture was added to 0.2 mℓ of a suspension containing competent cells at a concentration of about 10⁹ cells/mℓ and the mixture was left standing on ice for 10 minutes. Then, the mixture was heated at 37°C for 5 minutes and admixed with 2 mℓ of LB medium. Then, the mixture was left standing at 37°C for 90-120 minutes. Then, the cells were centrifugally washed twice with physiological saline solution and spread onto M9 plate medium (medium comprising 2 g of glucose, 1 g of NH₄Cl, 6 g of Na₂HPO₄, 3 g of KH₂PO₄, 0.1 g of MgSO₄·7H₂O, 15 mg of CaCl₂·2H₂O, 4 mg of thiamine hydrochloride and 15 g of agar in 1 ℓ of water, adjusted to pH 7.2), containing […] each of histidine, proline, arginine, isoleucine and valine. Colonies grown on M9 plate medium were spread onto LB plate medium (LB medium containing 1.6% agar, pH 7.0) containing 100 µg/mℓ ampicillin and LB plate medium containing 20 µg/mℓ tetracycline, and transformants grown on the ampicillin-containing medium and failing to grow on the tetracycline-containing medium were selected.
# Furthermore, the HindIII-SalI-cleaved DNA fragment had the same restriction enzyme cleavage sites as those of aroG gene, as reported by W.D. Davies, et al. [Nucl. Acids Res., 10, 4045 (1982)] […]
# [2] = Corynebacterium glutamicum ATCC 39019/pEaroG-pheA2
# [3] = Corynebacterium glutamicum ATCC 39019/pEaroG-pheA3
# [4] = Corynebacterium glutamicum ATCC 39019/pEaroG-pheA1
# Sequence of DS (P0AB91 whole entry): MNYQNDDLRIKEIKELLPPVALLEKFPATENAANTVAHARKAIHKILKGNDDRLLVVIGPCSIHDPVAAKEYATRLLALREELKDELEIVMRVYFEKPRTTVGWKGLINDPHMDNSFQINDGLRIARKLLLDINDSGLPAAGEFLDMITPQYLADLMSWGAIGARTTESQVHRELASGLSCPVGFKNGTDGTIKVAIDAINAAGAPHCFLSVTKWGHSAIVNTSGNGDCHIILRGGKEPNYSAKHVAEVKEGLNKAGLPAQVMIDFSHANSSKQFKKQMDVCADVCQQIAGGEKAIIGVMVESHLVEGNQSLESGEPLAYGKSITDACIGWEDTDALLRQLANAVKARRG
structure (smiles),measurement,setting,value
N[C@@H](Cc1ccccc1)C(=O)O [phenylalanine],activity at 100000 µM,"DS; Corynebacterium glutamicum ATCC 39019/pEaroG-pheA1, read-out: DS activity, expressed as percentage of that without addition of phenylalanine",12%
same,"DS activity, expressed as percentage of that without addition of phenylalanine",DS; [2],74 percentages
same,"DS activity, expressed as percentage of that without addition of phenylalanine",DS; [3],74 percentages
same,activity at 100000 µM,PD; [4],5%
same,activity at 100000 µM,PD; [2],7%
same,"PD activity, expressed as percentage of that without addition of phenylalanine",PD; [3],81 percentages
same,activity at 100000 µM,CM; [4],61%
same,activity at 100000 µM,CM; [2],66%
same,"CM activity, expressed as percentage of that without addition of phenylalanine",CM; [3],89 percentages
same,growth of Escherichia coli AB3248 strain carrying pAROG1,[1],completely inhibited
